From ChEMBL document CHEMBL1144455, “A small molecule-kinase interaction map for clinical kinase inhibitors” (Nat Biotechnol, 2005)

Key:
[1] = target: Mitogen-activated protein kinase 14 (Homo sapiens, UniProt Q16539)
[2] = target: STE20-like serine/threonine-protein kinase (Homo sapiens, UniProt Q9H2G2)
[3] = target: Platelet-derived growth factor receptor beta (Homo sapiens, UniProt P09619)
[4] = target: Tyrosine-protein kinase FRK (Homo sapiens, UniProt P42685)
[5] = target: Tyrosine-protein kinase Fer (Homo sapiens, UniProt P16591)
Sequence of Tyrosine-protein kinase Fer (P16591 whole entry): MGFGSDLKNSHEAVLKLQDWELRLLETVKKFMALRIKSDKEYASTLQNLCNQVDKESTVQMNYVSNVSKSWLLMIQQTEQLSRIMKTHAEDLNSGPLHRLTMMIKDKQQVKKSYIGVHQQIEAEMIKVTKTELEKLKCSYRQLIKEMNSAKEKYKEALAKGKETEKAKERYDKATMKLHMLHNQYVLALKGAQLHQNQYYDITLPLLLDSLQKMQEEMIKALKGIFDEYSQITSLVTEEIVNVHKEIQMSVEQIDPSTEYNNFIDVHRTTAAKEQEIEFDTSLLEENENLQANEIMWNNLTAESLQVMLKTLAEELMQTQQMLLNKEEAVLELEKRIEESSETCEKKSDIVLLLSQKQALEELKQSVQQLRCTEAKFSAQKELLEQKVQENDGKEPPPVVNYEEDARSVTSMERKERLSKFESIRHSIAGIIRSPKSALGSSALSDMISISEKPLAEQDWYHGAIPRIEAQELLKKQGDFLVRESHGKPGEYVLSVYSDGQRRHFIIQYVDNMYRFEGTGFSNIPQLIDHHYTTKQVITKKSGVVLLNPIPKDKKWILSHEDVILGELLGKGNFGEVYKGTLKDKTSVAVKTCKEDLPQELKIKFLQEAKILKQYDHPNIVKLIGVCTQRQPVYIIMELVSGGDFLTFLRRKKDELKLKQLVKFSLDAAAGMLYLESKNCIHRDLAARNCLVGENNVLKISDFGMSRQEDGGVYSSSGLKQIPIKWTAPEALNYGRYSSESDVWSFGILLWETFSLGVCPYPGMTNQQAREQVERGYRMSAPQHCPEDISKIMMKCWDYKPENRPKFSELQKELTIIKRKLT

[6] = target: Vascular endothelial growth factor receptor 3 (Homo sapiens, UniProt P35916)
[7] = target: Tyrosine-protein kinase ABL1 (Homo sapiens, UniProt P00519, E255K)
Sequence of Tyrosine-protein kinase ABL1 (P00519 whole entry E255K): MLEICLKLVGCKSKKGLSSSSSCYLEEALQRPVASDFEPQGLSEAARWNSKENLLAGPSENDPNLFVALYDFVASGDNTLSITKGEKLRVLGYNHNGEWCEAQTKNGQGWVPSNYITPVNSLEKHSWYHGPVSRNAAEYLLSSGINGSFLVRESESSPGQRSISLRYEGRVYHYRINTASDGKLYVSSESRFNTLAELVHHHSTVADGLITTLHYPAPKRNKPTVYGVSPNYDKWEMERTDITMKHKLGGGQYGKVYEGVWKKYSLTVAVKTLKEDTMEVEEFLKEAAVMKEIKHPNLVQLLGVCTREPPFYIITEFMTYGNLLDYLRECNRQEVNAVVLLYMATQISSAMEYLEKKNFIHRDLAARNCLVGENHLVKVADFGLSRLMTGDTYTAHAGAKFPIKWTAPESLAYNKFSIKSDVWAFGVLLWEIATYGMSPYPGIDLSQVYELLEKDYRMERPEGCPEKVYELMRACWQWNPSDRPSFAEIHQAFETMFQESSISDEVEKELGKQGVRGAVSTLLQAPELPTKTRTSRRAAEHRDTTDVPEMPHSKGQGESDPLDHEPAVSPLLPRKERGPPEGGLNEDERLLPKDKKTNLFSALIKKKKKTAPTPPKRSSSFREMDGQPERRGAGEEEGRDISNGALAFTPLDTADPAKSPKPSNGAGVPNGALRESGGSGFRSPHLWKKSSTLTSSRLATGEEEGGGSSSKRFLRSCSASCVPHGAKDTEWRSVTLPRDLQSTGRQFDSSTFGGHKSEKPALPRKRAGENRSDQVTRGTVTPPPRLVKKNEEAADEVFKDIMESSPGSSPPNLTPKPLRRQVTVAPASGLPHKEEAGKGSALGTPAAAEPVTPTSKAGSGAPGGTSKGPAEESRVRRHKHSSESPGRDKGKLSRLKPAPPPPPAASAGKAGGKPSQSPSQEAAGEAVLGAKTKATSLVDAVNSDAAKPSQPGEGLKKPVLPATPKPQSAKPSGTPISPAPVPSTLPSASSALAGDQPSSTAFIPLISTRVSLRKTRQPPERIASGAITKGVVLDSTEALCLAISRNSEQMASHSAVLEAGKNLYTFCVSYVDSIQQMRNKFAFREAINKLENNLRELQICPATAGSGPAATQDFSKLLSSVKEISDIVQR

[8] = target: T1, Serine/threonine-protein kinase 17A (Homo sapiens, UniProt Q9UEE5)
T1 sequence (Q9UEE5 whole entry): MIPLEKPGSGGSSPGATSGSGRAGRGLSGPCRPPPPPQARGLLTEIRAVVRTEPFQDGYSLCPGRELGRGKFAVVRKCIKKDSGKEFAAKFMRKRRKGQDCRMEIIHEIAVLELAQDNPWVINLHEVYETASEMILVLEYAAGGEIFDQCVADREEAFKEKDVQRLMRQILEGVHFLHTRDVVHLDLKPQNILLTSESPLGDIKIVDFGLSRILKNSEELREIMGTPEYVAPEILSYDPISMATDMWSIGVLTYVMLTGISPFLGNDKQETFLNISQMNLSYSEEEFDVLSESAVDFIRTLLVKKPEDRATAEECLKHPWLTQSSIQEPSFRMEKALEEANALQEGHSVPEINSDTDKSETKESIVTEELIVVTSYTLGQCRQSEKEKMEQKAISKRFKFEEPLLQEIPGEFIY

[9] = target: Fibroblast growth factor receptor 1 (Homo sapiens, UniProt P11362)
[10] = target: T2, Cyclin-G-associated kinase (Homo sapiens, UniProt O14976)
T2 sequence (O14976 whole entry): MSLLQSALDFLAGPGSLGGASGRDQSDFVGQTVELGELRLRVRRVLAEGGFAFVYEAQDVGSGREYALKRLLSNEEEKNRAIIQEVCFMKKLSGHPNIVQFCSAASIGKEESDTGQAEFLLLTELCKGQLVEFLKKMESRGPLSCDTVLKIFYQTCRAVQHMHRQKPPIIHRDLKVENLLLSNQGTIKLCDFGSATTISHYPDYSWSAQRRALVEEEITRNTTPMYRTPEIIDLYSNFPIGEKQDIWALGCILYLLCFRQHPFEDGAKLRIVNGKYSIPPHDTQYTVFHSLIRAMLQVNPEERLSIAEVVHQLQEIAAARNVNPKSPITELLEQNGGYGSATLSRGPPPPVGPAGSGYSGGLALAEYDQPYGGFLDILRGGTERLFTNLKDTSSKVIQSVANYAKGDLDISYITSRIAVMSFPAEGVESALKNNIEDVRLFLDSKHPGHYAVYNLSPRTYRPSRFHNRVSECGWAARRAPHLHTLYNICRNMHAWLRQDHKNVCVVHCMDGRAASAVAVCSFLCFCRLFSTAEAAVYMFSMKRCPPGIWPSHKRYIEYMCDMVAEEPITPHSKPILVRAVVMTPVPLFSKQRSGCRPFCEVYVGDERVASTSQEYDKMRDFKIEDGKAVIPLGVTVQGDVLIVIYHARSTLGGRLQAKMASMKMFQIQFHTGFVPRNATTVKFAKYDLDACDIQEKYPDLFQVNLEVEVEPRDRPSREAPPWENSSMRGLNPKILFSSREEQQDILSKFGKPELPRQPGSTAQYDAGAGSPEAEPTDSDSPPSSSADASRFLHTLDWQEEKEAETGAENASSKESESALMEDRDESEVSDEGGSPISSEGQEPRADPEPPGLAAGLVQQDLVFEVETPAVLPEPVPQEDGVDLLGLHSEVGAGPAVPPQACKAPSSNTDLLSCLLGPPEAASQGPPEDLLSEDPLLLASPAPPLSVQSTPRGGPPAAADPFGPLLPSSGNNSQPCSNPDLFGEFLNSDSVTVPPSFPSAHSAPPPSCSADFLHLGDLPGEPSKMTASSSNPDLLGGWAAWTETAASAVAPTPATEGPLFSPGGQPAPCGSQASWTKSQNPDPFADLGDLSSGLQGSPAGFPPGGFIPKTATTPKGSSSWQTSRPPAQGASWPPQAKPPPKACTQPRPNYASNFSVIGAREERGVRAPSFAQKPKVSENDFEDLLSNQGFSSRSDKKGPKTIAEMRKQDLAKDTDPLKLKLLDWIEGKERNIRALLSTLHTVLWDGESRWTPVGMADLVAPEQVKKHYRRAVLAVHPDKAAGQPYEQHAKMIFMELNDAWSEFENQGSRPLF

Ephrin type-A receptor 2 = Ephrin type-A receptor 2 (Homo sapiens, UniProt P29317)
Sequence of Ephrin type-A receptor 2 (P29317 whole entry): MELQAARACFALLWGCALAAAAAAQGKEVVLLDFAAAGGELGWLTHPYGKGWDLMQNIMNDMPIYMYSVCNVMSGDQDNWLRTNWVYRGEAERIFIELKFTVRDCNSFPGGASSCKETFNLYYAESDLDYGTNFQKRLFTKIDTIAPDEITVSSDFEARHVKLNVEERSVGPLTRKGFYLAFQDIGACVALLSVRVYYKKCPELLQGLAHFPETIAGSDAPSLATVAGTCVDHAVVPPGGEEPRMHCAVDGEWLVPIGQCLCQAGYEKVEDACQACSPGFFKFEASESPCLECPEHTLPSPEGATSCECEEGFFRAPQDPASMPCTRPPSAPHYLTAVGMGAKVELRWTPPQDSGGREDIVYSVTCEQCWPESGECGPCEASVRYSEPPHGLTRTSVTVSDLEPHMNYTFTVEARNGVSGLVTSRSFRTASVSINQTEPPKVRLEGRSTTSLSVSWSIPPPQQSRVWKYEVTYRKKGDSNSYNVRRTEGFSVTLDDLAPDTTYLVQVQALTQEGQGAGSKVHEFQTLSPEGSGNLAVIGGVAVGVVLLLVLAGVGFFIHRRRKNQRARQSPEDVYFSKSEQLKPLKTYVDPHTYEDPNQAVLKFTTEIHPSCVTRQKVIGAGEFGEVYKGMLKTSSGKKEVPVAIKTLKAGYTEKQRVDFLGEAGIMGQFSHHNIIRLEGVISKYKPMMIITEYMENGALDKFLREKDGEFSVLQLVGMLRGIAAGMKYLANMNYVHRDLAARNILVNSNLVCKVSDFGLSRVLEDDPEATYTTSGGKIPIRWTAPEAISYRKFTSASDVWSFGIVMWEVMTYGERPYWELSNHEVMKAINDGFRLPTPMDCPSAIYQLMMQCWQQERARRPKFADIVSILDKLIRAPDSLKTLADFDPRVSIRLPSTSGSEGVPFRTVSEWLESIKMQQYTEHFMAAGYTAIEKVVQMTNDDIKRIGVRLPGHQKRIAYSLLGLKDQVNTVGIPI

Aurora kinase C = target: T3, Aurora kinase C (Homo sapiens, UniProt Q9UQB9)
T3 sequence (Q9UQB9 whole entry): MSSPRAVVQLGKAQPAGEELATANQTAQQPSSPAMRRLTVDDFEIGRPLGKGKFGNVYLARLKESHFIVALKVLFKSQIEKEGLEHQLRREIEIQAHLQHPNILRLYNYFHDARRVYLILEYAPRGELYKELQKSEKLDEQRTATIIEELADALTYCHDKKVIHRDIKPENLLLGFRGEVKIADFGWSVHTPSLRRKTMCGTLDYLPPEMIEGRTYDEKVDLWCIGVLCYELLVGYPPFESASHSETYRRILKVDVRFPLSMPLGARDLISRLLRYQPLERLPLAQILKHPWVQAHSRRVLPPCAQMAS

[11] = target: Dual specificity protein kinase CLK3 (Homo sapiens, UniProt P49761)
LIM domain kinase 1 = LIM domain kinase 1 (Homo sapiens, UniProt P53667)
[12] = target: Ribosomal protein S6 kinase alpha-2 (Homo sapiens, UniProt Q15349)
[13] = target: Dual specificity protein kinase CLK4 (Homo sapiens, UniProt Q9HAZ1)
[14] = target: T4, Casein kinase I isoform epsilon (Homo sapiens, UniProt P49674)
T4 sequence (P49674 whole entry, canonical isoform): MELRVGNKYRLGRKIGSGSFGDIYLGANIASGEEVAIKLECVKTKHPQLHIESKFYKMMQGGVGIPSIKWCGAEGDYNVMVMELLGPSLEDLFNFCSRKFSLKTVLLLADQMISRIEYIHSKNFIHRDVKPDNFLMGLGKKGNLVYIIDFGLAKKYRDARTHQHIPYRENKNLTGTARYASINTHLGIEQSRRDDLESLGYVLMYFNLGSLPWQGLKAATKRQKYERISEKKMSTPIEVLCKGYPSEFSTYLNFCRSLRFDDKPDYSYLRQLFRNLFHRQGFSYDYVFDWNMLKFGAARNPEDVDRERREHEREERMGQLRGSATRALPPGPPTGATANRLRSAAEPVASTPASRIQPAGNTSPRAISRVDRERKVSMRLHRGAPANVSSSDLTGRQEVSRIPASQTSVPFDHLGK

[15] = target: Dual specificity protein kinase CLK2 (Homo sapiens, UniProt P49760)
Sequence of Dual specificity protein kinase CLK2 (P49760 whole entry, canonical isoform): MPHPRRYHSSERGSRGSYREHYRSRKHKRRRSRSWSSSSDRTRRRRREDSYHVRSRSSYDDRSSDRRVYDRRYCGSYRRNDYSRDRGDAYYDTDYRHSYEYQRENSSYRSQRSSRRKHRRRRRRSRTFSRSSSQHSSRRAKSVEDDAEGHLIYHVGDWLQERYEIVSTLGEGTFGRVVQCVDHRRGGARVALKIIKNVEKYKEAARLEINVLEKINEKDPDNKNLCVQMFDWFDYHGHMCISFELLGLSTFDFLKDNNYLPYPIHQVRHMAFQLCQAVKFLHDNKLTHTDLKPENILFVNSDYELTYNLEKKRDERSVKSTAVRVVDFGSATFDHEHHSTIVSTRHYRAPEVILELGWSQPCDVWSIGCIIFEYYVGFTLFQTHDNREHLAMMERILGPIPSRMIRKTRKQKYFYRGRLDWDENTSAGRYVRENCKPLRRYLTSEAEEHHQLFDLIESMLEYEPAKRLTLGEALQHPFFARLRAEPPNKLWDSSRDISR

[16] = target: T4, Casein kinase I isoform epsilon; remark: listed apart in the source

Sequence of STE20-like serine/threonine-protein kinase (Q9H2G2 whole entry): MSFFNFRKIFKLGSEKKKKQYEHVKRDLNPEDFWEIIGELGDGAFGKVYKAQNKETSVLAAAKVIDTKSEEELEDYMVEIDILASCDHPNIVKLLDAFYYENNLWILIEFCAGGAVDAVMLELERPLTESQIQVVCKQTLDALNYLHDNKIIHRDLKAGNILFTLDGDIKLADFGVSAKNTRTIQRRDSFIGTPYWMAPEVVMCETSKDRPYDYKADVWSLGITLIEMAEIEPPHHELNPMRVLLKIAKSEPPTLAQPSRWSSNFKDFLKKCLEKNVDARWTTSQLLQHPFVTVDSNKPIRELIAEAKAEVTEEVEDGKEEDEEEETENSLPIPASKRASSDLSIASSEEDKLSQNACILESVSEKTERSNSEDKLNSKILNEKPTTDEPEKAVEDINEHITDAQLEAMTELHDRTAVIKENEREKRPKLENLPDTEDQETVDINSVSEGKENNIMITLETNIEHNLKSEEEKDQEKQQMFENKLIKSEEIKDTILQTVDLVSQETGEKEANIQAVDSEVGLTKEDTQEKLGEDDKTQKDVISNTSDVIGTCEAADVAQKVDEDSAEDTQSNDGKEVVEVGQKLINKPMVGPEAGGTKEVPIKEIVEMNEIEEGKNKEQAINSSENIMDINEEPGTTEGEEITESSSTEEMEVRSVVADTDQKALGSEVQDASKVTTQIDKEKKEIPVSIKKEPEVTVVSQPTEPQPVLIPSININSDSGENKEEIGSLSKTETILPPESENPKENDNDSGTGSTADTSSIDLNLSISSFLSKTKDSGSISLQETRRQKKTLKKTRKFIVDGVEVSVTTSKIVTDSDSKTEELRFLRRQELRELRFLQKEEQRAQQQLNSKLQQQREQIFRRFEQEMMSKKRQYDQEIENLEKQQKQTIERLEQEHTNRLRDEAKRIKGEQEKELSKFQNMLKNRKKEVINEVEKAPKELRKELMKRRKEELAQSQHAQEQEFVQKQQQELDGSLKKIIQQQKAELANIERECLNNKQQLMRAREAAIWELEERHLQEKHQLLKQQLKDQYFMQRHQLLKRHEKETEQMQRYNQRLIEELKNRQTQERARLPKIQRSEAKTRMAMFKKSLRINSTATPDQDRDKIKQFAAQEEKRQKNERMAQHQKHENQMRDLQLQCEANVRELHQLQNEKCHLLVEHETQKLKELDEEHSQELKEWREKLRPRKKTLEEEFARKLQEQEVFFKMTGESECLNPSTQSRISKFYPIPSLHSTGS

CC[C@H](CO)Nc1nc(NCc2ccccc2)c2ncn(C(C)C)c2n1 [SELICICLIB]
Kd [1]: Not Active
Kd [2]: Not Active
Kd [3]: Not Active
Kd [4]: Not Active
Kd [5]: Not Active
Kd [6]: Not Active
Kd [7]: Not Active
Kd [8]: Not Active
Kd [9]: Not Active
Kd [10]: Not Active
Kd (Ephrin type-A receptor 2): Not Active
Kd (Aurora kinase C): Not Active
Kd [11]: Not Active
Kd (LIM domain kinase 1): Not Active

COc1cc2c(N3CCN(C(=O)Nc4ccc(OC(C)C)cc4)CC3)ncnc2cc1OCCCN1CCCCC1 [TANDUTINIB]
Kd [1]: Not Active
Kd [4]: Not Active
Kd [5]: Not Active
Kd [12]: Not Active
Kd [13]: Not Active
Kd [6]: Not Active
Kd [14]: Not Active
Kd [7]: Not Active
Kd [8]: Not Active
Kd [9]: Not Active
Kd [10]: Not Active
Kd (Ephrin type-A receptor 2): Not Active
Kd (Aurora kinase C): Not Active
Kd (LIM domain kinase 1): Not Active

Oc1ccc(-c2nc(-c3ccc(F)cc3)c(-c3ccncc3)[nH]2)cc1 [SB-202190]
Kd [2]: Not Active
Kd [15]: Not Active
Kd [3]: Not Active
Kd [5]: Not Active
Kd [12]: Not Active
Kd [13]: Not Active
Kd [6]: Not Active
Kd [7]: Not Active
Kd [16]: 400 nM
Kd [8]: Not Active
Kd [9]: Not Active
Kd (Ephrin type-A receptor 2): Not Active
Kd (Aurora kinase C): Not Active
Kd [11]: Not Active
Kd (LIM domain kinase 1): Not Active

C[S+]([O-])c1ccc(-c2nc(-c3ccc(F)cc3)c(-c3ccncc3)[nH]2)cc1 (configuration not stated) [SB-203580]
Kd [15]: Not Active
Kd [3]: Not Active
Kd [5]: Not Active
Kd [12]: Not Active
Kd [13]: Not Active
Kd [6]: Not Active
Kd [7]: Not Active
Kd [8]: Not Active
Kd [9]: Not Active
Kd (Ephrin type-A receptor 2): Not Active
Kd (Aurora kinase C): Not Active
Kd [11]: Not Active
Kd (LIM domain kinase 1): Not Active

CCOc1cc2ncc(C#N)c(Nc3ccc(F)c(Cl)c3)c2cc1NC(=O)/C=C/CN(C)C [PELITINIB]
Kd [1]: Not Active
Kd [3]: Not Active
Kd [6]: Not Active
Kd [16]: 97 nM
Kd [9]: Not Active
Kd (Ephrin type-A receptor 2): Not Active
Kd (Aurora kinase C): Not Active
Kd (LIM domain kinase 1): Not Active

Cc1ccc(NC(=O)c2ccc(CN3CCN(C)CC3)cc2)cc1Nc1nccc(-c2cccnc2)n1 [IMATINIB]
Kd [2]: Not Active
Kd [5]: Not Active
Kd [12]: Not Active
Kd [6]: Not Active
Kd [14]: Not Active
Kd [9]: Not Active
Kd (Ephrin type-A receptor 2): Not Active
Kd (Aurora kinase C): Not Active
Kd (LIM domain kinase 1): Not Active

O=c1ncn2nc(Sc3ccc(F)cc3F)ccc2c1-c1c(Cl)cccc1Cl [NEFLAMAPIMOD]
Kd [2]: Not Active
Kd [15]: Not Active
Kd [5]: Not Active
Kd [12]: Not Active
Kd [13]: Not Active
Kd [6]: Not Active
Kd [14]: Not Active
Kd [8]: Not Active
Kd [9]: Not Active
Kd [10]: Not Active
Kd (Aurora kinase C): Not Active
Kd [11]: Not Active
Kd (LIM domain kinase 1): Not Active

Oc1c2ccccc2c2c3c(cccc13)N=N2 [SP-600125]
Kd [1]: Not Active
Kd [3]: Not Active
Kd [4]: Not Active
Kd [5]: Not Active
Kd [6]: Not Active
Kd [7]: Not Active
Kd [16]: 3100 nM
Kd [9]: Not Active
Kd (Ephrin type-A receptor 2): Not Active
Kd [11]: Not Active
Kd (LIM domain kinase 1): Not Active

C#Cc1cccc(Nc2ncnc3cc(OCCOC)c(OCCOC)cc23)c1 [ERLOTINIB]
Kd [1]: Not Active
Kd [15]: Not Active
Kd [3]: Not Active
Kd [4]: Not Active
Kd [5]: Not Active
Kd [12]: Not Active
Kd [13]: Not Active
Kd [6]: Not Active
Kd [14]: Not Active
Kd [8]: Not Active
Kd [9]: Not Active
Kd (Ephrin type-A receptor 2): Not Active
Kd (Aurora kinase C): Not Active
Kd [11]: Not Active
Kd (LIM domain kinase 1): Not Active
